“And” between values parts separate entries of the source, which are not always exact repeats. Identical values can stand only once.
What was measured:
[1] = tested on: BT474 human breast cancer cell strain; assay: Antitumor cell proliferation in vitro, CCK-8 detection kit, BT474; type: cell-based; conditions: BT-474 cells, 1st and 2nd test where printed
Protocol: (§1) The half inhibitory concentration IC50 of proliferation of three kinds of tumor cell strain (U87MG, PC-3, BT474) for 12 candidate compounds of the present invention is detected by CCK-8 detection kits.
BT474 human breast cancer cell strain (cell bank of Chinese Academy of Sciences) Reagents and materials:
(§2) The studied compounds are dissolved by DMSO to make the final concentration 10 mM.
(§3) • a) Collecting the cells in logarithmic phase, counting, and resuspending the cells with complete medium. • b) Adjusting the concentration of cells to a suitable concentration, inoculating in 96 well plates, each well is inoculated to 100 μl cell suspension.
(§4) c) incubating cells for 24 hours in a 5% CO2 incubator at temperature of 37° C., under the condition of 100% relative humidity.
(§5) a) The cells in logarithmic phase is collected, counted, resuspended with complete medium. The concentration of cells is adjusted to a suitable concentration (determined in accordance with the optimizable test results of cell density), and the cells is inoculated in 96 well plates, wherein each well is inoculated 100 μl cell suspension, Cells are incubated for 24 hours in 5% CO2 incubator at temperature of 37° C. under the condition of 100% relative humidity.
(§6) b) The test compounds are diluted to 500 μM with culture medium, then diluted in series eight times. […] as 25 μl/well. The final concentrations of the compounds are diluted from 100 μM to 0 μM, with 4 times dilution, and there are a total of 10 concentration points.
(§7) c) Cells are incubated for 72 hours in 5% CO2 incubator at temperature of 37° C. under the condition of 100% relative humidity.
(§8) d) The culture medium is aspirated and discarded, and complete medium containing 10% CCK-8 is incubated in a incubator at 37° C. for 2˜4 hours.
(§9) e) After shocking gently, the absorbance of the culture medium is measured at 450 nm wavelength on SpectraMax M5 Microplate Reader, with the absorbance at 650 nm as reference, to calculate the inhibition rate.

PDGFR β enzyme = target: T1, PDGFR β enzyme (Homo sapiens, UniProt P09619); assay: Inhibitory activity to PDGFR β enzyme, HTRF kinEASE TK kit; type: biochemical; conditions: read-out: Inhibition rate % (PDGFR β)
T1 construct: purchased Invitrogen P3082
T1 sequence (P09619 33-1106): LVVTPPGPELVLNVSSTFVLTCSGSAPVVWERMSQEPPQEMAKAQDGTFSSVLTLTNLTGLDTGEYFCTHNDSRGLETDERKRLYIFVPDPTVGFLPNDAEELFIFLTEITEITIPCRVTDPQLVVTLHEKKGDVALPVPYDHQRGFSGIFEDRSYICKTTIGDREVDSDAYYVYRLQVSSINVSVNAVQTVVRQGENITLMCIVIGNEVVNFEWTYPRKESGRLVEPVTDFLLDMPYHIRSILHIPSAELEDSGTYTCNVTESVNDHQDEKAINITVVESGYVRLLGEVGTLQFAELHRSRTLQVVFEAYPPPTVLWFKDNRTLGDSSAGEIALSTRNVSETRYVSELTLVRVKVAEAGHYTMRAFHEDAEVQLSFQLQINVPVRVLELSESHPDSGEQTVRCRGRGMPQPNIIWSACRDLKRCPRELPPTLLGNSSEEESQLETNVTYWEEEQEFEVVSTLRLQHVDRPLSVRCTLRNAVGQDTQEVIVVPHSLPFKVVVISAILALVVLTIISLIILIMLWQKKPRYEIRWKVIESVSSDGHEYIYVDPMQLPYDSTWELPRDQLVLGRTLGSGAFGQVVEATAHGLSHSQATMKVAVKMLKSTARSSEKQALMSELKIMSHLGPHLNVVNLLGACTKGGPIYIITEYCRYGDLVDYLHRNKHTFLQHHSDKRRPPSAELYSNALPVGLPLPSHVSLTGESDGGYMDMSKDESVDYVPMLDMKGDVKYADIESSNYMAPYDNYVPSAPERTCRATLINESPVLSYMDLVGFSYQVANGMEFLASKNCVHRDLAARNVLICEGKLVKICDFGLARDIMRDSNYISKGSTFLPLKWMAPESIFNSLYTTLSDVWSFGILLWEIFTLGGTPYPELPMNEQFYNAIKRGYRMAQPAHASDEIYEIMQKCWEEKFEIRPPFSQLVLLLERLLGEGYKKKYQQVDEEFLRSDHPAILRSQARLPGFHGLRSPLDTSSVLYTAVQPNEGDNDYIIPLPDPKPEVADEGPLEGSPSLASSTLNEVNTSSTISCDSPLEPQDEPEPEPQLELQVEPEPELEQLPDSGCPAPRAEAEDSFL
Outline: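 Recombinant human PDGFRβ phosphorylating TK-substrate in kinase buffer containing MgCl2, MnCl2, DTT and SEB, with ATP. Phosphorylation detected by HTRF using TK-Ab-Cryptate and Sa-XL665.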

[2] = tested on: PC-3 cell Akt (Ser473) phosphorylation; assay: Inhibition of phosphorylation level of PC-3 cell Akt (Ser473), Cisbio HTRF phospho Akt (Ser473) cell-based assay; design: species or system human; conditions: hEGF 100 ng/ml stimulation, 1st and 2nd test where printed
Protocol: The inhibitory activity of the compounds of present invention to the phosphorylation level of PC-3 cell Akt (Ser473) is studied by using Cisbio HTRF phospho Akt (Ser473) cell-based assay test kit.
Cell strain: PC-3 prostate cancer cells line (cell bank of Chinese Academy of Sciences) is cultured by using culture medium (F12K+10% FBS).
hEGF is prepared as stock solution of 100 ug/ml with 10 mM acetic acid, and the stock solution is diluted to 200 ng/ml with serum-free medium, added 50 ul to each well to be stimulated.
b) Preparation of Complete Lysate • 4×Lysis Buffer is diluted 4 times with ddH2O to prepare 1×Lysis Buffer. • 100×Blocking Reagent is diluted 100 times with 1×Lysis Buffer.
c) Preparation of Detection Liquid • 20×Anti-Phospho-Akt is diluted 20 times with Detection Buffer. • 20×Anti-Akt is diluted 20 times with Detection Buffer.
The compounds are diluted with DMSO, and the working concentration of compounds is 100 times of detection concentration.
Cells in logarithmic growth phase are collected, counted, and resuspended with complete culture medium;
The cell concentration is adjusted to appropriate concentration, and cell suspension is inoculated into 96 well plates at 50 μl per well;
Cells are incubated for more than 4 h in the 5% CO2 incubator at temperature of 37° C., relative humidity of 100%;
Cell plate is removed from the incubator. The cell suspension is aspirated gently, and 50 ul serum-free F12K medium is quickly added, then the cell plate is placed into the incubator to culture overnight.
The compounds are diluted in a linear gradient with DMSO.
0.5 ul compounds is added into the test well, mixed on oscillators, and incubated at room temperature for 2 hours.
Proportioned hEGF solution is added to test well at 50 μl per well, and the final concentration is 100 ng/ml. serum-free medium is added into The negative control well at 50 μl per well.
The solution is mixed on oscillator and incubated at room temperature for 2 hours.
The liquid in 96 well plates is aspirated by multichannel pipette or the supernatant is discarded gently. The proportioned complete lysate is added quickly at 50 μl per well.
The solution is mixed on oscillator and lysed at room temperature for 30 min.
16 μl cell lysate is transferred from the 96 well plates to white low volume 384 well plates, and the proportioned two pairs of detection antibody are added. The solution is mixed on oscillator, and incubated at room temperature for 4 hours to detect the readings.

PI3 K γ = target: T2, PI3 K γ (Homo sapiens, UniProt P48736); assay: Inhibitory activity to PI3K γ, PI 3-Kinase (human) HTRF Assay kit; type: biochemical; conditions: read-out: Inhibition rate % to PI3 K γ
T2 construct: purchased Biology, Medicilon
T2 sequence (P48736 whole entry): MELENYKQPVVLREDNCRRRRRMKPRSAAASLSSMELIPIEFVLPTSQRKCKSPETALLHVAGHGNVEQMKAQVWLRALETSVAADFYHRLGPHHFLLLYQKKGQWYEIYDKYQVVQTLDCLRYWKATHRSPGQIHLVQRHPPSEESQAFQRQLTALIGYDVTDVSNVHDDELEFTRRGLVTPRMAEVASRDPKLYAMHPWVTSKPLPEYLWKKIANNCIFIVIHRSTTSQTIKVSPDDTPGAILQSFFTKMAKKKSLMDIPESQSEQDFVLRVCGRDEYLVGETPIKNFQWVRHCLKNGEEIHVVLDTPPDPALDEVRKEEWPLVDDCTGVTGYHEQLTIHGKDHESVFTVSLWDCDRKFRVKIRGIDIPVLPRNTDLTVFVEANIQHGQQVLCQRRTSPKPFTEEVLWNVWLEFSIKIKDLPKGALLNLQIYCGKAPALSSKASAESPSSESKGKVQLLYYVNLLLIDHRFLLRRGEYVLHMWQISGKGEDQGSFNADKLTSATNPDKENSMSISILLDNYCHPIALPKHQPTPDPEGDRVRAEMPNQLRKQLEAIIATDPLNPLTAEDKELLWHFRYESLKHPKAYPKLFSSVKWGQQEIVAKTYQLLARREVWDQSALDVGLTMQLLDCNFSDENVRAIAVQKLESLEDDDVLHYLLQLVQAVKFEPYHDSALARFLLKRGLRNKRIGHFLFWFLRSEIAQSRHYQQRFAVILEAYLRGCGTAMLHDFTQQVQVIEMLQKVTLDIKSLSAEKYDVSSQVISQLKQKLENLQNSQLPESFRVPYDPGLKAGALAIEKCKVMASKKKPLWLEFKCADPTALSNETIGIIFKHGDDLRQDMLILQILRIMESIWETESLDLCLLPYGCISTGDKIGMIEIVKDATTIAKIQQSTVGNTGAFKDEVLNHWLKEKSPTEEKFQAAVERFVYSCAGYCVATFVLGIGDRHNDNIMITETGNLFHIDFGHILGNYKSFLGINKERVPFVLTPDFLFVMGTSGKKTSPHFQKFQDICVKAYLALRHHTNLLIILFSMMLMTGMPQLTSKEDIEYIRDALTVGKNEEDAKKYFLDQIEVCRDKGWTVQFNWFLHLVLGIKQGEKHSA
Outline: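 HTRF kinase assay with PI3Kγ at 80 ng/well, 10 μM PIP2 and 100 μM ATP (both final) in DTT-containing reaction buffer, 1% DMSO. Preliminary screen at 10 μM and 1 μM compound, followed by IC50 determination for selected compounds.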

PI3Kδ = target: T3, PI3Kδ (Homo sapiens, UniProt O00329); assay: Inhibitory activity to PI3K δ, PI 3-Kinase (human) HTRF Assay kit; type: biochemical; conditions: for inhibition at 1 µM / inhibition at 10 µM: read-out: Inhibition rate % to PI3Kδ
T3 construct: purchased Millipore 14-604
T3 sequence (O00329 whole entry): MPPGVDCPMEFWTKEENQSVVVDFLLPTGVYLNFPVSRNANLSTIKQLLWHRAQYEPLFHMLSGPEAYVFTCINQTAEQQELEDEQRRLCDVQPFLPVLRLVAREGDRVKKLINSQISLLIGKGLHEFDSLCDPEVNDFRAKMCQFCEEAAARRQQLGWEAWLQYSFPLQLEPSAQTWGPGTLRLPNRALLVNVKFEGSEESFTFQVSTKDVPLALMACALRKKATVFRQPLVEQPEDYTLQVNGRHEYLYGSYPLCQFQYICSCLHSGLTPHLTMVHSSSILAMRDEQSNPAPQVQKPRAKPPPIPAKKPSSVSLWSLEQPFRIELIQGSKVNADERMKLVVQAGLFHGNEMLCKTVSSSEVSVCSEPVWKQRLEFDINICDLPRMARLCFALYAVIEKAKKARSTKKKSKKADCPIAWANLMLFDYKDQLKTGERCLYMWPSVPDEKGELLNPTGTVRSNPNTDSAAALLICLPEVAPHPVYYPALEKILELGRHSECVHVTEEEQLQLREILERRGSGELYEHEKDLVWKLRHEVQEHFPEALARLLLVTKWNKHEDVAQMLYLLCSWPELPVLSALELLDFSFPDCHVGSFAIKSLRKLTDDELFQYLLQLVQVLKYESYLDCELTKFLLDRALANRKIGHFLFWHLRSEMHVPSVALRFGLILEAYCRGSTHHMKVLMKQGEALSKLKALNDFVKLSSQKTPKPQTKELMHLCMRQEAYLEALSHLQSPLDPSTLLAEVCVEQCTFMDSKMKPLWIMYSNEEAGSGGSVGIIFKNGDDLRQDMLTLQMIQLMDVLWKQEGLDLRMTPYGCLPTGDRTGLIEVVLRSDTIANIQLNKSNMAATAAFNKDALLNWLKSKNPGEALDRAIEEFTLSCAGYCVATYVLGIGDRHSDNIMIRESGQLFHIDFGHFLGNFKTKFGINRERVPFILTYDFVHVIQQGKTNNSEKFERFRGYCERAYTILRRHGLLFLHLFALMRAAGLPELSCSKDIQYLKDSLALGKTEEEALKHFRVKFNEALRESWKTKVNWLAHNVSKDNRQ
T3 sequence (P27986 whole entry partner): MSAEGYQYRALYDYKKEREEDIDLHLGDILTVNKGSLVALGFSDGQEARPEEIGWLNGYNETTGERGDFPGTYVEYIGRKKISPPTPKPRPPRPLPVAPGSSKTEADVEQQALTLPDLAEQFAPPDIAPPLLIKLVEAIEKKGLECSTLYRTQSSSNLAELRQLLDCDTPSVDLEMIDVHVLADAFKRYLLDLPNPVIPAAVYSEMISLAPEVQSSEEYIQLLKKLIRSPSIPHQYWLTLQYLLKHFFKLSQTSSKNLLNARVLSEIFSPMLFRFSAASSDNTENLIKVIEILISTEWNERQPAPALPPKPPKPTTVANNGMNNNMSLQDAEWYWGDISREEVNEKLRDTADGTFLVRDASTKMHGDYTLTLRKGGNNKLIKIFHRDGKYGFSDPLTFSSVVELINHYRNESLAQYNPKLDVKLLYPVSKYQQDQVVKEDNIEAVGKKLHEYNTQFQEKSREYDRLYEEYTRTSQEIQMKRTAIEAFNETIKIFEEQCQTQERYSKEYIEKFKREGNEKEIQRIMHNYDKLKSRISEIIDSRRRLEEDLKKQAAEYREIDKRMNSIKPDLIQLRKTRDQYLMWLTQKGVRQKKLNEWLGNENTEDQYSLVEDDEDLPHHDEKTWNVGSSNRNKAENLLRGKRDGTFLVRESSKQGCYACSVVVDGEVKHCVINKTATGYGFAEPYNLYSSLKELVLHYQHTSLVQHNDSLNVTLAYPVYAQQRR
Outline: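 Inhibition of human PI3Kδ was assessed with the Millipore PI 3-Kinase (human) HTRF Assay kit. PI3Kδ was screened at 2 ng/well, diluted in 2×PIP2 operating fluid. Reactions were 20 μL and contained 100 μM ATP. Stop solution was Stop A and Stop B mixed 3:1. Detection solution was DM C, DM A and DM B mixed 18:1:1. Compounds were prepared from DMSO stocks, and percent inhibition was reported.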

[3] = tested on: PC-3 human prostate cancer cell strain; assay: Antitumor cell proliferation in vitro, CCK-8 detection kit, PC-3; type: cell-based; conditions: Homo sapiens, PC-3, 72 h, PC-3 cells, 1st and 2nd test where printed
Protocol: as §1
PC-3 human prostate cancer cell strain (cell bank of Chinese Academy of Sciences)
as §2, §3, §4, §5, §6, §7, §8, §9

[4] = tested on: U87MG human glioblastoma Multiforme cell strain; assay: Antitumor cell proliferation in vitro, CCK-8 detection kit, U87MG; type: cell-based; conditions: U-87 MG, 72 h, U-87MG cells, 1st and 2nd test where printed
Protocol: as §1
U87MG human glioblastoma Multiforme cell strain (cell bank of Chinese Academy of Sciences)
as §2, §3, §4, §5, §6, §7, §8, §9

PI3K α = target: T4, PI3K α (Homo sapiens, UniProt P42336); assay: Inhibitory activity to PI3K α, PI 3-Kinase (human) HTRF Assay kit; type: biochemical; conditions: read-out: % Inhibition Rate to PI3K α
T4 construct: purchased Millipore 14-602
T4 sequence (P42336 whole entry): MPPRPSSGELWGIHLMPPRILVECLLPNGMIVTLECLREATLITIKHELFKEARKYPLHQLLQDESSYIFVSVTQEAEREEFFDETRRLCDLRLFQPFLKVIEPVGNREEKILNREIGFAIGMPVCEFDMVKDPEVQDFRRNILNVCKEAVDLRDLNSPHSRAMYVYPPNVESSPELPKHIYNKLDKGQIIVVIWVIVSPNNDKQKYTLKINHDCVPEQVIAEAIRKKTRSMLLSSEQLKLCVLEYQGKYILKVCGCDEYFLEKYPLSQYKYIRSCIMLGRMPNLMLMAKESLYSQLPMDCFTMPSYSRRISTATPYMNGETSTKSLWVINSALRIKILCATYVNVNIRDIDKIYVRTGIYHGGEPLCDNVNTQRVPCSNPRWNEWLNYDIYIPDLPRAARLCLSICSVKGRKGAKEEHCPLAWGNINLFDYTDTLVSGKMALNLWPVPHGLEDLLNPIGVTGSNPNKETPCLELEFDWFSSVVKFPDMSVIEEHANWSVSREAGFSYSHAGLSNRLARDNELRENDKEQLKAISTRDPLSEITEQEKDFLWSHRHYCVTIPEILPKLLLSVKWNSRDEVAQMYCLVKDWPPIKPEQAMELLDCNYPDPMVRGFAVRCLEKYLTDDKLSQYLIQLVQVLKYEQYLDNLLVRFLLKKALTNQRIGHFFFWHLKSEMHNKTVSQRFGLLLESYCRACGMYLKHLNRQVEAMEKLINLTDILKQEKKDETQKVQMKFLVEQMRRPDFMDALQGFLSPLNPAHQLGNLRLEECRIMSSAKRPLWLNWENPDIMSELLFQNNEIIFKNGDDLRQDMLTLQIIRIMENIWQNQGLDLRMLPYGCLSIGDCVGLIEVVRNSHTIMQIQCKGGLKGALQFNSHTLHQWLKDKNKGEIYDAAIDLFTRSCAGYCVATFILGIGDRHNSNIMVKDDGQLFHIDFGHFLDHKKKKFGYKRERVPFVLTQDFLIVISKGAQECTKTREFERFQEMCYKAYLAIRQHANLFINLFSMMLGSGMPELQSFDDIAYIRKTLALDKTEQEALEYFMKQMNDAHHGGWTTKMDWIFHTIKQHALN
T4 sequence (P27986 whole entry partner): as the sequence (P27986 whole entry partner) above
Description: Study on the inhibitory activity of the compounds of present invention to PI 3κα, PI3κδ and PI3κγ. Two or three concentrations of the compounds are selected to preliminary screening to calculate respectively the activity inhibition rate of the compounds of corresponding concentrations to enzyme, then the compounds with better activity are selected by preliminary screening for IC50 test.
PI 3-Kinase (human) HTRF™ Assay kit (Cat.33-017, Millipore)
PI 3k α (Cat.14-602, Millipore)
4× Reaction Buffer (Cat.33-002, Millipore) is diluted with ddH2O to 1.33×, and 1M DTT is added to make the final concentration as 6.67 mM. For example, 10 μL DTT is added into 500 μL 4× Reaction Buffer, and water is added to 1.5 mL.
The Test compounds are dissolved with DMSO to 1 mM as storage liquid. 2 μL of each of storage liquid is added into 48 μL ddH2O, to obtain the 40 μM compounds solution containing 4% DMSO. After mixing, 3 μL of each of the solution is added into 27 μL 4% DMSO (in ddH2O) to obtain the 4 μM compounds solution. 5 μL of each dilute solution is added into 384-well plates, then the final concentration of the compounds in the 20 μL final kinase reaction system is 10 μM and 1 μM respectively contained 1% DMSO. The dilution methods of compounds are similar to the preliminary screening in IC50 test.
2×PIP2 working fluid is prepared with 1.33× reaction buffer to the final concentration of 20 μM.
The screening concentration of PI 3k α kinase: 8 ng/well,
Kinase is diluted with 2×PIP2 operating fluid, the concentration of kinase operating fluid is 2 times of screening concentration.
10 mM ATP is diluted with 1.33× reaction buffer to 400 μM. The concentration of ATP is 100 μM in 20 μL kinase reaction system.
Stop A and Stop B are mixed according to the proportion of 3:1, and are placed for 2 hours at room temperature to obtain the stop solution available.
DM C, DM A and DM B are mixed according to the proportion of 18:1:1, and are placed for 2 hours at room temperature to obtain the detection solution available.

inhibition at 1 µM (PI3Kδ; 1 μM (Table 7)) [%]	inhibition at 10 µM (PI3Kδ; 10 μM (Table 7)) [%]	IC50 [3] [nM]	IC50 [4] [nM]	IC50 ([1]; Homo sapiens, BT-474, 72 h) [nM]	IC50 ([2]; Homo sapiens, PC-3, PC-3 cells) [nM]	inhibition at 1 µM (PI3K α) [%]	inhibition at 10 µM (PI3K α) [%]	Inhibition rate % to PI3Kδ (PI3Kδ; 1 μM (Table 7), 1 µM) [%]	Inhibition rate % to PI3Kδ (PI3Kδ; 10 μM (Table 7), 10 µM) [%]	Structure (SMILES)	IC50 ([1]; 72 hours)	inhibition at 1 µM (PDGFR β enzyme) [%]	inhibition at 10 µM (PDGFR β enzyme) [%]	IC50 ([2]; PC-3 cells)	inhibition at 1 µM (PI3 K γ; 1 μM) [%]	inhibition at 10 µM (PI3 K γ; 10 μM) [%]
75.7	95.6	616	8600	441	67	49.5	126	–	–	CC(C)Nc1nc(Nc2ccc3nccc(-c4ccccc4)c3c2)nc2[nH]cnc12 [MED1007-101, N6-isopropyl-N2-(4-phenylquinoline-6-yl)-9H-purine-2,6-diamine]	–	–	–	–	–	–
–	–	1700	18100	1360	–	60.3	106	57.14	85.86	CC(C)Oc1nc(Nc2ccc3ncccc3c2)nc2[nH]cnc12 [MED1007-104, N-(6-isopropoxy-9H-purine-2-yl) quinoline-6-amine]	–	–	–	–	–	–
74.2	105	1020	41000	420	–	60.4	111	–	–	CCC(CC)Oc1nc(Nc2ccc3nccc(-c4ccccc4)c3c2)nc2[nH]cnc12 [MED1007-105, N-(6-(pentyl-3-yloxyl)-9H-purine-2-yl)-4-phenyl quinoline-6-amine]	–	–	–	–	–	–

Structure (SMILES)	inhibition at 1 µM (PI3Kδ; 1 μM (Table 7)) [%]	inhibition at 10 µM (PI3Kδ; 10 μM (Table 7)) [%]	IC50 [3] [nM]	IC50 [4] [nM]	IC50 ([1]; Homo sapiens, BT-474, 72 h) [nM]	IC50 ([2]; Homo sapiens, PC-3, PC-3 cells) [nM]	inhibition at 1 µM (PI3K α) [%]	inhibition at 10 µM (PI3K α) [%]	Inhibition rate % to PI3Kδ (PI3Kδ; 1 μM (Table 7), 1 µM) [%]	Inhibition rate % to PI3Kδ (PI3Kδ; 10 μM (Table 7), 10 µM) [%]	IC50 ([1]; 72 hours)	inhibition at 1 µM (PDGFR β enzyme) [%]	inhibition at 10 µM (PDGFR β enzyme) [%]	IC50 ([2]; PC-3 cells)	inhibition at 1 µM (PI3 K γ; 1 μM) [%]	inhibition at 10 µM (PI3 K γ; 10 μM) [%]
CC(C)Oc1nc(Nc2ccc3nccc(-c4ccccc4)c3c2)nc2[nH]cnc12 [MED1007-51, N-(6-isopropoxy-9H-purine-2-yl)-4-(phenyl-1-yl) quinoline-6-amine]	39.6	75.5	–	–	–	–	–	–	–	–	81.4 nM and 114 nM	11.9	33.6	1.14 nM and 0.683 nM	1.16	56.2

Source: patent US9718823B2, “2, 6-Di-nitrogen-containing substituted purine derivative, and preparation method, pharmaceutical composition and use thereof” (Zhejiang Medicine Co., Ltd. Xinchang Pharmaceutical Factory, priority 2013, dated 2017)
